Measurements: US10577362B2, “Substituted 2, 4-diamino-quinoline derivatives for use in the treatment of proliferative diseases” (GENOSCIENCE PHARMA, priority 2016, dated 2020)

Legend:
[1] = tested on: A375 (malignant melanoma) cell line; test: CellTiter-Glo luminescent cell viability assay, A375; format: cell-based, human; settings: Homo sapiens, A-375; for viability at 4 µM: A375, compound at 4 μM; for viability at 4 µM / viability at 10 µM: 72 h; for viability at 10 µM: A375, compound at 10 μM; for EC50: A375 cell line, 72 h incubation, CellTiter-Glo, read-out: EC50, growth inhibition of A375
How it was run: (§1)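 Adherent lines plated overnight, MOLM-14 (suspension) 1 h before dosing, in medium with 10% FBS at 37 °C, 5% CO2. Compounds added at varying concentrations for 72 h; CellTiter-Glo luminescence read, EC50 as dose reducing signal to 50% of diluent-treated cells, at least duplicate points.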

[2] = tested on: MOLM-14 (acute myeloid leukemia) cell line; test: CellTiter-Glo luminescent cell viability assay, MOLM-14; format: cell-based, human; settings: Homo sapiens; for viability at 4 µM: MOLM-14, compound at 4 μM; for viability at 4 µM / viability at 10 µM: 72 h; for viability at 10 µM: MOLM-14, compound at 10 μM; for EC50: MOLM-14 cell line, 72 h incubation, CellTiter-Glo, read-out: EC50, growth inhibition of MOLM-14
How it was run: (§2)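 Luminescent signal, normalised to diluent-treated cultures, defines % viability; EC50 is the concentration lowering it to 50%. Cells had been exposed to compound for 72 h at 37 °C in medium with 10% FBS, at a constant H2O or DMSO percentage.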

[3] = tested on: HCT-116 (colorectal carcinoma) cell line; test: CellTiter-Glo luminescent cell viability assay, HCT-116; format: cell-based, human; settings: Homo sapiens; for viability at 4 µM: HCT-116, compound at 4 μM; for viability at 4 µM / viability at 10 µM: 72 h; for viability at 10 µM: HCT-116, compound at 10 μM; for EC50: HCT-116 cell line, 72 h incubation, CellTiter-Glo, read-out: EC50, growth inhibition of HCT-116
How it was run: as §1

[4] = tested on: HepG2 (hepatocellular carcinoma) cell line; test: CellTiter-Glo luminescent cell viability assay, HepG2; format: cell-based, human; settings: Homo sapiens; for viability at 4 µM / viability at 10 µM: HepG2, HepG, 72 h; for viability at 4 µM: compound at 4 μM; for viability at 10 µM: compound at 10 μM; for EC50: HepG2 cell line, 72 h incubation, CellTiter-Glo, read-out: EC50, growth inhibition of HepG2
How it was run: as §2

[5] = tested on: 786-O (renal adenocarcinoma) cell line; test: CellTiter-Glo luminescent cell viability assay, 786-O; format: cell-based, human; settings: Homo sapiens, 786-0; for EC50: 786-O cell line, 72 h incubation, CellTiter-Glo, read-out: EC50, growth inhibition of 786-O; for viability at 4 µM / viability at 10 µM: 786-O, 72 h; for viability at 4 µM: compound at 4 μM; for viability at 10 µM: compound at 10 μM
How it was run: as §1

[6] = tested on: Huh7 (hepatocellular carcinoma) cell line; test: CellTiter-Glo luminescent cell viability assay, Huh7; format: cell-based, human; settings: Homo sapiens, Huh-7; for viability at 4 µM: Huh7, compound at 4 μM; for viability at 4 µM / viability at 10 µM: 72 h; for viability at 10 µM: Huh7, compound at 10 μM; for EC50: Huh7 cell line, 72 h incubation, CellTiter-Glo, read-out: EC50, growth inhibition of Huh7
How it was run: as §2

[7] = tested on: PANC-1 (prancreatic carcinoma) cell line; test: CellTiter-Glo luminescent cell viability assay, PANC-1; format: cell-based; settings: Homo sapiens; for viability at 4 µM: PANC-1, 4 μM; for viability at 4 µM / viability at 10 µM: 72 h, % of signal of diluent-treated cultures; for viability at 10 µM: PANC-1, 10 μM; for EC50: PANC-1 cell line, 72 h incubation, CellTiter-Glo, read-out: EC50 (growth inhibition assay of PANC-1 cell line)
How it was run: as §2

Structure (SMILES) | EC50 [1] | EC50 [2] | EC50 [3] | EC50 [4] | EC50 [5] | EC50 [6] | viability at 4 µM [1] | viability at 10 µM [1] | viability at 4 µM [2] | viability at 10 µM [2] | viability at 4 µM [3] | viability at 10 µM [3] | viability at 4 µM [4] | viability at 10 µM [4] | viability at 4 µM [5] | viability at 10 µM [5] | viability at 4 µM [6] | viability at 10 µM [6] | viability at 4 µM [7] | viability at 10 µM [7] | other results
CN(C)C1CCN(c2c(C#N)c(NCc3ccc(Cl)cc3)nc3ccccc23)C1 (stereo not drawn) [Compound 3202CN, 2-(4-chloro-benzylamino)-3-cyano-4-[3-(dimethylamino)pyrrolidin-1-yl]quinoline] | – | – | – | – | – | – | 84.5% | 70.5% | 98.7% | 82.6% | 93.7% | 62.4% | 104% | 81% | 92.9% | 74.7% | 91.1% | 61.5% | 96.1% | 81.5% | –
COc1ccc(Nc2nc3ccccc3c(N3CCC(NC(C)(C)C)CC3)c2C#N)cc1 [Compound 3252CN, 2-(4-methoxyphenylamino)-3-cyano-4-[4-(tert-butylamino)piperidin-1-yl]quinoline] | 0.5 to 5 µM | 5 to 10 µM | 0.5 to 5 µM | 5 to 10 µM | 0.5 to 5 µM | 5 to 10 µM | 20% | 0.2% | 80.2% | 0.7% | 2.5% | 0.2% | 68.4% | 0.3% | 74.2% | 0.3% | 80.6% | 2.9% | 94.7% | 47.9% | EC50 [7]: 5 to 10 µM
CC(C)(C)NC1CCN(c2c(C#N)c(Nc3ccccc3C(F)(F)F)nc3ccccc23)CC1 [Compound 3254CN, 2-(2-trifluoromethylphenylamino)-3-cyano-4-[4-(tert-butylamino)piperidin-1-yl]quinoline] | 0.5 to 5 µM | 5 to 10 µM | 0.5 to 5 µM | 0.5 to 5 µM | 0.5 to 5 µM | 0.5 to 5 µM | 0.4% | 0.2% | 81.4% | 0.3% | 0.3% | 0.2% | 6.9% | 0.2% | 6.3% | 0.3% | 34.2% | 0.3% | 78.4% | 3% | EC50 [7]: 5 to 10 µM
CC(C)(C)NC1CCN(c2c(C#N)c(Nc3cccc(C(F)(F)F)c3)nc3ccccc23)CC1 [Compound 3256CN, 2-(3-trifluoromethylphenylamino)-3-cyano-4-[4-(tert-butylamino)piperidin-1-yl]quinoline] | – | – | – | – | – | – | 55.2% | 2.4% | 91.1% | 85.6% | 3.6% | 0.2% | 82.9% | 56.6% | 61.8% | 13.7% | 78.3% | 29.3% | 104% | 81.8% | –
CC(C)(C)NC1CCN(c2c(C#N)c(Nc3ccc(F)cc3)nc3ccccc23)CC1 [Compound 3260CN, 2-(4-fluorophenylamino)-3-cyano-4-[4-(tert-butylamino)piperidin-1-yl]quinoline] | 0.5 to 5 µM | 5 to 10 µM | 0.5 to 5 µM | 0.5 to 5 µM | 0.5 to 5 µM | 5 to 10 µM | 2.2% | 0.4% | 86.7% | 0.9% | 1.2% | 0.3% | 49.1% | 0.4% | 17.5% | 0.3% | 50.7% | 0.7% | 84.1% | 39.1% | EC50 [7]: 5 to 10 µM
CC(C)(C)NC1CCN(c2c(C#N)c(Nc3cccc(F)c3)nc3ccccc23)CC1 [Compound 3262CN, 2-(3-fluorophenylamino)-3-cyano-4-[4-(tert-butylamino)piperidin-1-yl]quinoline] | 5 to 10 µM | 5 to 10 µM | 0.5 to 5 µM | 5 to 10 µM | 0.5 to 5 µM | 5 to 10 µM | 74.9% | 0.6% | 98.7% | 0.6% | 2.6% | 0.5% | 70.8% | 0.6% | 42.6% | 0.7% | 67.9% | 0.7% | 101% | 48% | –

More lines, main results first:

EC50 [1] | EC50 [2] | EC50 [3] | EC50 [4] | EC50 [5] | EC50 [6] | Structure (SMILES) | viability at 4 µM [1] | viability at 10 µM [1] | viability at 4 µM [2] | viability at 10 µM [2] | viability at 4 µM [3] | viability at 10 µM [3] | viability at 4 µM [4] | viability at 10 µM [4] | viability at 4 µM [5] | viability at 10 µM [5] | viability at 4 µM [6] | viability at 10 µM [6] | viability at 4 µM [7] | viability at 10 µM [7] | other results
5 to 10 µM | 5 to 10 µM | 5 to 10 µM | 5 to 10 µM | 5 to 10 µM | 5 to 10 µM | CN1CCN(C2CCN(c3c(C#N)c(NCc4ccc(Cl)cc4)nc4ccccc34)C2)CC1 (stereo not drawn) [Compound 3200CN, 2-(4-chloro-benzylamino)-3-cyano-4-[3-(4-methylpiper-azin-1-yl)pyrro-lidin-1-yl] quinoline] | 47.3% | 0.3% | 97.1% | 0.4% | 35.1% | 0.4% | 71.8% | 0.3% | 41.7% | 0.4% | 80.6% | 0.4% | 90.2% | 38.4% | –
0.5 to 5 µM | 5 to 10 µM | 0.5 to 5 µM | 0.5 to 5 µM | 5 to 10 µM | 0.5 to 5 µM | CC(C)(C)NC1CCN(c2c(C#N)c(Nc3ccccc3)nc3ccccc23)CC1 [Compound 3246CN, 2-(phenylamino)-3-cyano-4-[4-(tert-butylamino)piperidin-1-yl]quinoline] | 66.2% | 0.2% | 91.9% | 3.1% | 3% | 0.1% | 53.2% | 0.2% | 59% | 0.2% | 67.7% | 0.6% | 88.2% | 38.8% | EC50 [7]: 5 to 10 µM
0.5 to 5 µM | 5 to 10 µM | 0.5 to 5 µM | 0.5 to 5 µM | 0.5 to 5 µM | 5 to 10 µM | Cc1cc(Nc2nc3ccccc3c(N3CCC(NC(C)(C)C)CC3)c2C#N)ccc1F [Compound 3250CN, 2-(3-methyl-4-fluorophenylamino)-3-cyano-4-[4-(tert-butylamino)piperidin-1-yl]quinoline] | 0.7% | 0.3% | 87.5% | 0.6% | 0.2% | 0.1% | 71% | 0.5% | 30.3% | 0.4% | 67% | 0.5% | 94.7% | 13.1% | EC50 [7]: 5 to 10 µM
– | 0.5 to 5 µM | 0.5 to 5 µM | 0.5 to 5 µM | 0.5 to 5 µM | 0.5 to 5 µM | CC(C)(C)NC1CCN(c2c(C#N)c(Nc3ccc(F)c(F)c3)nc3ccccc23)CC1 [Compound 3264CN, 2-(3,4-difluorophenylamino)-3-cyano-4-[4-(tert-butylamino)piperidin-1-yl]quinoline] | 12.8% | 0.4% | 0.4% | 0.5% | 0.3% | 0.3% | 0.5% | 0.3% | 12.7% | 0.6% | 11.7% | 0.5% | 78.1% | 2.4% | –
